Measurements from a melting point compilation (Tetko et al.; mined from patent text by program, amines drawn as free bases though some values may be those of a salt).

melting point [°C]	Structure (SMILES)
68 to 71	COc1ccc(C(CCCCC(=O)O)C2=C(C)C(=O)c3ccccc3C2=O)cc1 (stereo not drawn)
115 to 116	CC(C)(C)COc1cccc(C[C@H](N)[C@H](O)c2cccc(Cl)c2)c1 (racemic)
186 to 191	COC(=O)c1ccc(O)nc1C1=NC(C)(C(C)C)C(=O)N1 (stereo not drawn)
109 to 110	COCCOCCN1C(=O)C2(COc3cc4c(cc32)OCCO4)c2c(OC)ccc(OC)c21 (stereo not drawn)
210 to 211	CCOC(=O)CCC(=O)c1cnc2c(OC)cccc2c1Nc1ccccc1C
296	O=c1c2ccccc2oc2cc(-c3nnn[nH]3)ccc12
163 to 164	CCn1ncc2c(NCc3ccccc3)c3ccc(OC)cc3nc21
90 to 92.5	O=S(=O)(c1ccccc1)N1CCC(=C(c2ccc(F)cc2)c2ccc(F)cc2)CC1
196 to 198	CC(C)Cn1c(CC(C)O)nc2c(N)nc3ccccc3c21 (stereo not drawn)
190 to 191	CCCc1nc2c(N)nc3cc(Oc4ccc(N)cc4)ccc3c2n1CC(C)C
248 to 249	COn1c(C)nc2c(NCc3c(C)cccc3C)cc(C(=O)O)cc21
110	c1ccc(CCN2Cc3sccc3C(c3ccccc3)C2)cc1 (stereo not drawn)
163 to 165	Cc1cc(SC2=C(O)CC(C3CCCC3)(C3CCCC3)OC2=O)c(C(C)(C)C)cc1N
137 to 142	NC(=O)COCC(Cc1ccccc1)NC(=O)[C@@H]1CCCN1C(=O)OCc1ccccc1 (stereo partly drawn)
72 to 75	OCc1cc(C2CN(CCCCCCOCCCCc3ccccc3)CO2)ccc1O (racemic)
126 to 128	CN(Cc1ccccc1)Cc1c(-c2ccc(N)cc2)sc2c1c(=O)c(C(=O)c1ccccc1)cn2Cc1c(F)cccc1F
325 to 326	COc1ccc(OC)c(Cc2c(C)c3c(N)nc(N)nc3[nH]c2=O)c1
148 to 149	Oc1ccc2c(CCC3CCN(Cc4ccccc4)CC3)noc2c1
250 to 251	Cc1ncnc(O)c1Cl
158	CCS(=O)c1cc(C(=O)O)c(OC)cc1N (stereo not drawn)
111	CCC1(Cl)Cc2cc(OCC(=O)OC)c(Cl)c(Cl)c2C1=O (stereo not drawn)
127 to 132	Cc1cc2cnnc(OCc3ccc(F)cc3)c2n1Cc1ccccc1
93	O=C(c1ccc(F)c(Cl)c1)c1ccc(F)c(Cl)c1

melting point [°C]	Structure (SMILES)
222 to 223	CC(C)(C)NC(=O)N1CCc2cc(S(=O)(=O)n3cc(-c4ccccc4)[nH]c3=O)ccc21
186 to 191	COc1cn(-c2cccc(Br)c2F)nc(-c2ccnn2-c2ccccc2)c1=O
148 to 150	O=C(OCC1=CC(O)C2C=COC(OC3OC(CO)C(O)C(O)C3O)C12)c1ccc(O)cc1 (stereo not drawn)
162 to 164	O=C(Nc1ccc2cn[nH]c2c1)C(=O)N1CCC(Cc2ccc(F)cc2)CC1
196	COc1cc(Nc2nccc(-c3ccc([N+](=O)[O-])cc3)n2)cc(OC)c1OC
201 to 204	CC(C)N(C(C)C)C(C)CN1C(=O)/C(=N/NC(N)=O)c2ccccc21 (stereo not drawn)
79 to 81	N[C@H]1CCN(C(=O)c2cc(C(F)(F)F)cc(C(F)(F)F)c2)[C@H](Cc2ccc(Cl)cc2)C1
173 to 175	CC(=O)N1CCC(C(O)(c2ccccc2)c2ccc(F)cc2)CC1 (stereo not drawn)
190 to 192	Cn1c2c(c3cc(C#N)ccc31)C(=O)CCC2
122 to 125	CC(C)(CC(=O)O)c1ccccc1SSc1ccccn1
91 to 92	CCOC(=O)NC(=NCCCc1c[nH]cn1)NCCSCc1ccccc1
261 to 262	Cc1c(C(=O)Nc2cccc(C#N)c2N2CCC(O)CC2)cnn1C
133 to 136	CCNc1c(C(=O)OCC)c(=O)n(CC)c2nc(C)ccc12
173 to 174	COc1cc(Oc2ccc(S(C)(=O)=O)nc2)cc2cc(C3=NCC(CC(=O)NCC(C)(C)O)S3)[nH]c12 (stereo not drawn)
163 to 165	O=C(NNC(=S)Nc1cccc(Br)c1)c1cccc([N+](=O)[O-])c1
225 to 227	NCc1ccc(C2CCN(c3c(F)c(N)c4c(=O)c(C(=O)O)cn(C5CC5)c4c3F)C2)cc1 (stereo not drawn)
> 300	C#Cc1c[nH]c2nc(NC(=O)C(C)(C)C)nc(O)c12
85 to 87	O=Cc1c(O)c(Cl)cc(Cl)c1OCCCCC(=O)O
241 to 242	Cc1nc2c3c(c(C(=O)N4CCC4)cc2n1C)CCC(c1ccccc1)O3 (stereo not drawn)
179 to 180	O=C(NNS(=O)(=O)c1ccccc1)c1cc2cccc(Cl)c2o1
266	CN1CCN(c2cc3c(cc2F)c(=O)c(C(=O)O)cn3Cc2ccccc2)CC1
247 to 248	CCCCCCCCCCOc1ccc(C(=O)Nc2ccc(C(=O)O)cc2)cc1C12CC3CC(CC(C3)C1)C2
151 to 153	Cc1ccc(C(=O)Nc2ccc(CN3CCCCC3)c(C(F)(F)F)c2)cc1Br

melting point [°C]	Structure (SMILES)
126 to 127	CCN(CC)CCCCC1CCN(C(=O)N2c3cc(Cl)ccc3C(=O)Nc3cccnc32)CC1
165 to 173	CCOC(=O)c1cn(-c2cc([N+](=O)[O-])c(F)cc2F)c2cc(F)c(F)cc2c1=O
295 to 297	O=C(O)c1cn2c3c(cc(F)cc3c1=O)CCC2C(F)(F)F (stereo not drawn)
104 to 106	CC(C)(C)OC(=O)COCCC1CCN(c2cnc(-c3ccccc3)c(-c3ccccc3)n2)CC1
173 to 174	O=C(O)CS(=O)c1cc2onc(-c3ccccc3F)c2cc1Br (stereo not drawn)
237 to 240	CN(C(=O)c1cc2c(cn1)[nH]c1ccccc12)c1ccccc1
89 to 93	CCOC(=O)C(C(=O)CC)C(=O)OCC
218 to 219	CC(=O)NCC1CN(c2cc(F)c(-c3cccnc3)c(F)c2)C(=O)O1 (stereo not drawn)
195	O=C1O[C@@H](Cn2ccnn2)CN1c1ccc(-c2ccc(C3=NOC(CS(=O)(=O)CCc4ccncc4)C3)nc2)c(F)c1 (stereo partly drawn)
166 to 167	Cc1cccc(C)c1SC(CC(C)C)c1c(O)cc(-c2ccccc2)oc1=O (stereo not drawn)
84 to 86.5	CC(=O)Oc1ccc(-c2cnc(N(S(=O)(=O)Cc3ccccc3)S(=O)(=O)Cc3ccccc3)c(Cc3ccccc3)n2)cc1
136 to 138	CSc1nc(NCc2ccc(-c3ccccn3)cc2)n2ncc(C(C)C)c2n1
155 to 160	O=C(O)Cc1c(C(=O)c2ccc(Cl)cc2)[nH]c2cc(C(F)(F)F)ccc12
49 to 51	Cc1ccc(-c2cccs2)cc1C
114 to 117	O=C(NS(=O)(=O)c1ccccc1-c1ccccc1)Oc1ccccc1
97 to 99	CN(C)CCc1[nH]c2ccccc2c1CSc1ccccc1
100 to 103	CC1(C)[C@@H](CN2CCCCC2)CC[C@@]1(C)NCC(=O)N1C[C@@H](F)C[C@H]1C#N
182 to 183	O=C(Nc1c[nH]nc1C(=O)NCCOc1ccccc1)c1ccccn1
59 to 63	COC(=O)CC1=c2ccccc2=Cc2ccccc2O1
97 to 98	COC(=O)C(C)(C)c1ccc2cc(OC)ccc2c1
206	N#Cc1c(N)nc2ccc(N3CCN(Cc4ccccc4)CC3)cc2c1Cl
159 to 162	C=C(c1ccc(OC)cc1)c1ccc(N2CCCC2)cc1
116 to 120	COc1cc(N2CCN(C[C@H](C)O)CC2)c(F)cc1Nc1ncc2ccc(-c3ccccc3N(C)S(C)(=O)=O)n2n1

melting point [°C]	Structure (SMILES)
229	CC(C)(CO)NS(=O)(=O)c1cccc(NC(=O)c2cnn3c(C(F)F)cc(-c4ccc(Cl)cc4)nc23)c1
194	N=c1sc2cc(OC(F)(F)F)ccc2n1CCS(=O)c1ccncc1 (stereo not drawn)
124 to 125	CC(C)(C)NCC(O)COc1ccc(-c2csnn2)cc1 (stereo not drawn)
192 to 194	CN(C)S(=O)(=O)c1cccc2c1Sc1ccc(OCc3ccccc3)cc1N2
97	CC(C)(C)OC(=O)N1CCn2ccc(C#N)c2C1
138 to 139	CC(C)CCOc1c(-c2ccc(S(C)(=O)=O)cc2)cnn(C(C)(C)C)c1=O
93 to 97	C[C@H](c1ccccc1)n1c(=O)c2c(Cl)cc(Cl)cc2n(Cc2ccccc2)c1=O
209	OC1CSC(Oc2ccc(-c3cnccc3F)nc2-c2cnccc2F)C(O)C1O (stereo not drawn)
125 to 126	COC(=O)c1cccc2c(CCl)c(C)sc12
68 to 70	COC(=O)c1cccc([N+](=O)[O-])c1Cl
113 to 114	CNC(=O)c1c(NC)ncn1Cc1ccccc1
70	CCCCC(CC)COC(=O)CC(C(=O)OCC(CC)CCCC)S(=O)(=O)O (stereo not drawn)
125 to 126	O=C1c2cc(N3CCN(Cc4ccccc4)CC3)ccc2OC12CC2
150 to 155	CC(CCC(=O)O)C1CCC2C3C(O)CC4CC(NC(=O)CNC(=O)OC(C)(C)C)CCC4(C)C3CC(O)C12C (stereo not drawn)
169 to 170	O=C(Nc1ccc(Oc2ccccc2)cc1)N1CCN(c2ncnc3ccc(Br)cc23)CC1
> 300	Cn1nnc2c3nc(O)c(O)nc3ccc21
249	Cc1nc2c3c(ccc2n1C)[C@@H](OCC(F)F)[C@H](O)[C@@H](c1ccccc1)O3
128 to 129	C=CCc1cc(C=CNC(=O)OC)ccc1OCC(O)CNC(C)C (stereo not drawn)
236 to 239	Cc1cc(=O)n(-c2cc(C(=O)O)c(Cl)cc2F)c(=O)n1C
108 to 110	Cc1ccc(C2=C(c3ccc(S(N)(=O)=O)cc3)CCC2)cn1
261 to 265	COc1ccc(-c2cnc3cc4cnn(C(C)=O)c4cc3n2)cc1F
94 to 95	Cc1c(C)c2c(c(C)c1N)CC(C)(CN1CCC(CCO)CC1)O2 (stereo not drawn)
152 to 153	CCCc1c(OCCCCCCCOc2ccc(C(=O)c3cccc(C(=O)O)c3)cc2CCC(=O)O)ccc2c1OCCC2=O

Structure (SMILES)	melting point [°C]
OCc1c(Cl)c(Cl)c(Cl)c(Cl)c1Cl	195 to 196
FC(F)(F)C1(c2cc(Cl)cc(Cl)c2)CC(c2ccc(CCl)cc2)=NO1 (stereo not drawn)	98 to 100
N#CC1C(c2ccccc2)N1C(=O)NC(=O)CCl (stereo not drawn)	153 to 158
COc1ccc2[nH]cc3c2c1[C@@]1(C)OCCN(C)[C@@H]1C3 (relative stereo)	200 to 202
CS(=O)(=O)C(=[N+]=[N-])S(C)(=O)=O	120 to 124
C=Cc1ncn2c1[C@@H]1CCN1C(=O)c1c(Cl)cccc1-2	171 to 172
